In ChEMBL document CHEMBL5614402, “Discovery of novel pyrazolo[1,5-a]pyrimidine derivatives as potent reversal agents against ABCB1-mediated multidrug resistance” (Eur J Med Chem, 2024):
Activity calls are given as the source filed them. No cut-off for these calls is given here.

Tests used:
NCI/ADR-RES [1] = test: Antiproliferative activity against human MCF7ADR cells assessed as survival rate at 5 uM incubated for 72 hrs by MTT assay; assay type: functional; details: read-out: Survival
MCF7 [2] = test: Reversal of paclitaxel resistance in human MCF7 cells assessed as reversal fold by measuring ratio of paclitaxel IC50 to paclitaxel IC50 in presence of test compound at 5 uM incubated for 72 hrs by MTT assay; assay type: functional
MCF7 [3] = test: Reversal of paclitaxel resistance in human MCF7 cells assessed as reduction in paclitaxel IC50 at 5 uM pretreated with compound for 4 hrs followed by paclitaxel addition and measured after 72 hrs by MTT assay (reference value: 2.60 +/- 0.36 nM); assay type: functional, cell-based
MCF7 [4] = test: Antiproliferative activity against human MCF7 cells assessed as survival rate at 5 uM incubated for 72 hrs by MTT assay; assay type: functional; details: read-out: Survival
MCF7 [5] = test: Antiproliferative activity against human MCF7 cells incubated for 72 hrs by MTT assay; assay type: functional, cell-based; details: MCF7, 72 h
NCI/ADR-RES [6] = test: Antiproliferative activity against human MCF7ADR cells incubated for 72 hrs by MTT assay; assay type: functional, cell-based
NCI/ADR-RES [7] = test: Reversal of paclitaxel resistance in human MCF7ADR cells assessed as reduction in paclitaxel IC50 at 5 uM pretreated with compound for 4 hrs followed by paclitaxel addition and measured after 72 hrs by MTT assay (reference value: 6.68 +/- 0.35 microM); assay type: functional, cell-based
NCI/ADR-RES [8] = test: Reversal of paclitaxel resistance in human MCF7ADR cells assessed as reversal fold by measuring ratio of paclitaxel IC50 to paclitaxel IC50 in presence of test compound at 10 uM incubated for 72 hrs by MTT assay; assay type: functional
NCI/ADR-RES [9] = test: Reversal of paclitaxel resistance in human MCF7ADR cells assessed as reduction in paclitaxel IC50 at 10 uM pretreated with compound for 4 hrs followed by paclitaxel addition and measured after 72 hrs by MTT assay (reference value: 6.68 +/- 0.35 microM); assay type: functional, cell-based
MCF7 [10] = test: Reversal of paclitaxel resistance in human MCF7 cells assessed as reversal fold by measuring ratio of paclitaxel IC50 to paclitaxel IC50 in presence of test compound at 10 uM incubated for 72 hrs by MTT assay; assay type: functional
MCF7 [11] = test: Reversal of paclitaxel resistance in human MCF7 cells assessed as reduction in paclitaxel IC50 at 10 uM pretreated with compound for 4 hrs followed by paclitaxel addition and measured after 72 hrs by MTT assay (reference value: 2.60 +/- 0.36 nM); assay type: functional, cell-based
NCI/ADR-RES [12] = test: Reversal of paclitaxel resistance in human MCF7ADR cells assessed as reversal fold by measuring ratio of paclitaxel IC50 to paclitaxel IC50 in presence of test compound at 5 uM incubated for 72 hrs by MTT assay; assay type: functional
NCI/ADR-RES [13] = test: Induction of apoptosis in human MCF7ADR cells assessed as necrotic cells at 10 nM by Annexin V-FITC and propidium iodide staining based flow cytometry analysis (reference value: 3.14%); assay type: functional
NCI/ADR-RES [14] = test: Induction of apoptosis in human MCF7ADR cells assessed as viable cells at 10 nM by Annexin V-FITC and propidium iodide staining based flow cytometry analysis (reference value: 85.75%); assay type: functional; details: read-out: Activity
NCI/ADR-RES [15] = test: Induction of apoptosis in human MCF7ADR cells assessed as late apoptotic cells at 10 nM by Annexin V-FITC and propidium iodide staining based flow cytometry analysis (reference value: 7.24%); assay type: functional
Tubulin (Homo sapiens) = Tubulin (Homo sapiens) (UniProt P68371+Q9H4B7+P0DPH7+P68366+Q13509+Q71U36+P04350+Q3ZCM7+P07437+P68363+Q9BQE3+Q6PEY2+Q13885+Q9BVA1+Q9BUF5); test: Inhibition of tubulin depolymerization in human MCF7ADR cells assessed as change in microtubule morphology at 10 nM incubated for 72 hrs; assay type: cell-based
NCI/ADR-RES [16] = test: Induction of apoptosis in human MCF7ADR cells assessed as early apoptotic cells at 10 nM by Annexin V-FITC and propidium iodide staining based flow cytometry analysis (reference value: 3.87%); assay type: functional

SMILES | viability at 5 µM (NCI/ADR-RES [1]) | Ratio (MCF7 [2]) | IC50 (MCF7 [3]) | viability at 5 µM (MCF7 [4]) | IC50 (MCF7 [5]) | IC50 (NCI/ADR-RES [6]) | IC50 (NCI/ADR-RES [7]) | Ratio (NCI/ADR-RES [8]) | IC50 (NCI/ADR-RES [9]) | Ratio (MCF7 [10]) | IC50 (MCF7 [11]) | Ratio (NCI/ADR-RES [12]) | Activity (NCI/ADR-RES [13]) | viability at 0.01 µM (NCI/ADR-RES [14]) | Activity (NCI/ADR-RES [15]) | inhibition (Tubulin (Homo sapiens)) | Activity (NCI/ADR-RES [16])
COc1ccc(CCN(C)CCCC(C#N)(c2ccc(OC)c(OC)c2)C(C)C)cc1OC (stereo unspecified) [VERAPAMIL] | > 99% | 2.55 | 0.00102 µM | > 99% | > 20 µM | > 20 µM | 0.17 µM | 96.11 | 0.0695 µM | 0.97 | 0.00268 µM | 39.29 | – | – | – | – | –
COc1cc(-c2c(-c3ccc(F)cc3)c(C)nc3cc(-c4ccco4)nn23)cc(OC)c1OC | 93.8% | – | – | 91.6% | > 20 µM | > 20 µM | 0.18 µM | – | – | – | – | 37.11 | – | – | – | – | –
COc1cc(-c2c(-c3ccc(Cl)cc3)c(C)nc3cc(-c4cccs4)nn23)cc(OC)c1OC | 94.2% | – | – | 98.2% | > 20 µM | > 20 µM | 0.082 µM | – | – | – | – | 81.46 | – | – | – | – | –
COc1cc(-c2c(C)nc3cc(C)nn3c2-c2cc(OC)c(OC)c(OC)c2)cc(OC)c1OC | 96.6% | – | – | 94.4% | > 20 µM | > 20 µM | 0.46 µM | – | – | – | – | 14.52 | – | – | – | – | –
COc1cc(-c2c(-c3ccc(Br)cc3)c(C)nc3cc(-c4cccs4)nn23)cc(OC)c1OC | 94.2% | – | – | 94.8% | 14.4 µM | > 20 µM | 0.048 µM | – | – | – | – | 139.16 | – | – | – | – | –
COc1ccc(-c2c(C)nc3cc(C)nn3c2-c2cc(OC)c(OC)c(OC)c2)cc1 | 95.2% | – | – | > 99% | > 20 µM | > 20 µM | 0.82 µM | – | – | – | – | 8.14 | – | – | – | – | –
COc1cc(-c2c(-c3ccc(Br)cc3)c(C)nc3cc(-c4ccco4)nn23)cc(OC)c1OC | 93.6% | – | – | 94.5% | > 20 µM | > 20 µM | 5.86 µM | – | – | – | – | 1.14 | – | – | – | – | –
COc1ccc(-c2c(C)nc3cc(C#N)nn3c2-c2cc(OC)c(OC)c(OC)c2)cc1 | 90.6% | – | – | 93.9% | > 20 µM | > 20 µM | 0.62 µM | – | – | – | – | 10.77 | – | – | – | – | –
COc1ccc(-c2c(C)nc3cc(-c4ccccc4)nn3c2-c2cc(OC)c(OC)c(OC)c2)cc1OC | 89.2% | – | – | 92.7% | > 20 µM | > 20 µM | 0.048 µM | – | – | – | – | 139.16 | – | – | – | – | –
COc1ccc(-c2c(C)nc3cc(-c4ccccc4)nn3c2-c2cc(OC)c(OC)c(OC)c2)cc1 | 89.2% | – | – | 90.2% | 7.94 µM | > 20 µM | 0.048 µM | – | – | – | – | 151.81 | – | – | – | – | –
COc1ccc(-c2c(C)nc3cc(-c4ccco4)nn3c2-c2cc(OC)c(OC)c(OC)c2)cc1OC | 97.1% | – | – | 92.4% | > 20 µM | > 20 µM | 0.087 µM | – | – | – | – | 76.78 | – | – | – | – | –
CC(=O)O[C@H]1C(=O)[C@@]2(C)[C@H]([C@H](OC(=O)c3ccccc3)[C@]3(O)C[C@H](OC(=O)[C@H](O)[C@@H](NC(=O)c4ccccc4)c4ccccc4)C(C)=C1C3(C)C)[C@]1(OC(C)=O)CO[C@@H]1C[C@@H]2O [PACLITAXEL] | – | – | – | – | – | – | – | – | – | – | – | – | 2.4% | 86.2% | 6.48% | inactive | 4.93%
COc1ccc(-c2c(C)nc3cc(Br)nn3c2-c2cc(OC)c(OC)c(OC)c2)cc1 | 91.2% | – | – | 95.4% | > 20 µM | > 20 µM | 1.4 µM | – | – | – | – | 4.77 | – | – | – | – | –
COc1ccc(-c2c(C)nc3cc(C4CC4)nn3c2-c2cc(OC)c(OC)c(OC)c2)cc1 | 95.1% | – | – | > 99% | > 20 µM | > 20 µM | 0.12 µM | – | – | – | – | 51.28 | – | – | – | – | –
COc1ccc(-c2c(C)nc3cc(-c4cccs4)nn3c2-c2cc(OC)c(OC)c(OC)c2)cc1 | 85.1% | – | – | 93.6% | > 20 µM | > 20 µM | 0.049 µM | – | – | – | – | 136.32 | – | – | – | – | –
CCc1cc2nc(C)c(-c3ccc(OC)cc3)c(-c3cc(OC)c(OC)c(OC)c3)n2n1 | > 99% | – | – | > 99% | > 20 µM | > 20 µM | 0.24 µM | – | – | – | – | 27.83 | – | – | – | – | –
